Measurements as given in patent US5747535A, “Selective thrombin inhibitors” (priority 1995, dated 1998).
Where two headings read alike, the source gives them in different places.

Assay: Test 2: Pharmacokinetic test in rats
Type: in vivo, rat
Details: for concentration at 0.05 h: 3 min; for concentration at 0.5 h: 30 min; for concentration at 0.75 h: 45 min; for concentration at 1 h: 60 min; for concentration at 1.5 h: 90 min; for concentration at 2 h: 120 min; for concentration at 3 h: 180 min; for bioavailability: oral route
Method: Male rats and dogs were fasted for 24 hours and used as the experimental animals. […] Bloods were collected from the animals at given time intervals and then immediately mixed with methanol and zinc sulfate. Finally, the upper layer of the mixture was quantitatively analyzed at ultraviolet wavelength of 231 nm to measure the drug concentration in blood by HPLC.

[1] = rat, blood, iv, 10 mg/kg, Rat-1, i.v. 10 mg/kg, read-out: Blood concentration
[2] = rat, blood, iv, 10 mg/kg, Rat-2, i.v. 10 mg/kg, read-out: Blood concentration
[3] = rat, blood, iv, 10 mg/kg, Rat-3, i.v. 10 mg/kg, read-out: Blood concentration
[4] = rat, blood, iv, 10 mg/kg, rats, i.v. 10 mg/kg, read-out: Blood concentration, Average(+error)
[5] = rat, blood, po, 15 mg/kg, Rat-1, oral 15 mg/kg, read-out: Blood concentration
[6] = rat, blood, po, 15 mg/kg, Rat-2, oral 15 mg/kg, read-out: Blood concentration
[7] = rat, blood, po, 15 mg/kg, Rat-3, oral 15 mg/kg, read-out: Blood concentration
[8] = rat, blood, po, 15 mg/kg, rats, oral 15 mg/kg, read-out: Blood concentration, Average(+error)

CN(C(=O)[C@H](Cc1ccc(C(=N)NN)cc1)NS(=O)(=O)c1ccc2ccccc2c1)C1CCCC1 [Example 1, (S)-N-cyclopentyl-N-methyl-3-(4-amidrazonophenyl)-2-(2-naphthylsulfonylamino)propionamide]
concentration at 1 min [1]: 31500 ng/mL | concentration at 0.05 h [1]: 8100 ng/mL | concentration at 5 min [1]: 3980 ng/mL | concentration at 10 min [1]: 1910 ng/mL | concentration at 20 min [1]: 918 ng/mL | concentration at 0.5 h [1]: 631 ng/mL | concentration at 0.75 h [1]: 355 ng/mL | concentration at 1 h [1]: 270 ng/mL | concentration at 1.5 h [1]: 168 ng/mL | concentration at 2 h [1]: 76 ng/mL | concentration at 3 h [1]: 87 ng/mL | concentration at 1 min [2]: 23000 ng/mL | concentration at 0.05 h [2]: 6770 ng/mL | concentration at 5 min [2]: 3070 ng/mL | concentration at 10 min [2]: 1830 ng/mL | concentration at 20 min [2]: 898 ng/mL | concentration at 0.5 h [2]: 600 ng/mL | concentration at 0.75 h [2]: 408 ng/mL | concentration at 1 h [2]: 242 ng/mL | concentration at 1.5 h [2]: 166 ng/mL | concentration at 2 h [2]: 97 ng/mL | concentration at 3 h [2]: 73 ng/mL | concentration at 1 min [3]: 32000 ng/mL | concentration at 0.05 h [3]: 7880 ng/mL | concentration at 5 min [3]: 4220 ng/mL | concentration at 10 min [3]: 1930 ng/mL | concentration at 20 min [3]: 883 ng/mL | concentration at 0.5 h [3]: 591 ng/mL | concentration at 0.75 h [3]: 398 ng/mL | concentration at 1 h [3]: 289 ng/mL | concentration at 1.5 h [3]: 184 ng/mL | concentration at 2 h [3]: 119 ng/mL | concentration at 3 h [3]: 78 ng/mL | concentration at 1 min [4]: 28800 ng/mL | concentration at 0.05 h [4]: 7590 ng/mL | concentration at 5 min [4]: 3760 ng/mL | concentration at 10 min [4]: 1890 ng/mL | concentration at 20 min [4]: 900 ng/mL | concentration at 0.5 h [4]: 607 ng/mL | concentration at 0.75 h [4]: 387 ng/mL | concentration at 1 h [4]: 267 ng/mL | concentration at 1.5 h [4]: 173 ng/mL | concentration at 2 h [4]: 97 ng/mL | concentration at 3 h [4]: 79 ng/mL | concentration at 5 min [5]: 1610 ng/mL | concentration at 10 min [5]: 1480 ng/mL | concentration at 20 min [5]: 569 ng/mL | concentration at 0.5 h [5]: 232 ng/mL | concentration at 0.75 h [5]: 145 ng/mL | concentration at 1 h [5]: 143 ng/mL | concentration at 1.5 h [5]: 66 ng/mL | concentration at 2 h [5]: 34 ng/mL | concentration at 3 h [5]: 24 ng/mL | concentration at 5 min [6]: 822 ng/mL | concentration at 10 min [6]: 686 ng/mL | concentration at 20 min [6]: 166 ng/mL | concentration at 0.5 h [6]: 82 ng/mL | concentration at 0.75 h [6]: 107 ng/mL | concentration at 1 h [6]: 123 ng/mL | concentration at 1.5 h [6]: 186 ng/mL | concentration at 3 h [6]: 238 ng/mL | concentration at 5 min [7]: 570 ng/mL | concentration at 10 min [7]: 384 ng/mL | concentration at 20 min [7]: 97 ng/mL | concentration at 0.5 h [7]: 113 ng/mL | concentration at 0.75 h [7]: 112 ng/mL | concentration at 1 h [7]: 110 ng/mL | concentration at 1.5 h [7]: 119 ng/mL | concentration at 2 h [7]: 71 ng/mL | concentration at 3 h [7]: 64 ng/mL | concentration at 5 min [8]: 1000 ng/mL | concentration at 10 min [8]: 850 ng/mL | concentration at 20 min [8]: 255 ng/mL | concentration at 0.5 h [8]: 143 ng/mL | concentration at 0.75 h [8]: 121 ng/mL | concentration at 1 h [8]: 125 ng/mL | concentration at 1.5 h [8]: 124 ng/mL | concentration at 2 h [8]: 53 ng/mL | concentration at 3 h [8]: 109 ng/mL | bioavailability (rat, blood, rats, read-out: Bioavailability): 15% | half-life (rat, blood, rats, read-out: Elimination Half-life, Average + (error)): 47 min | distribution and disappearance after intravenous injection (rats, intravenous): rapidly distributed and then slowly disappeared | bioavailability (rats): 15 (2) %
